From ChEMBL document CHEMBL3045737, “Evaluation of toxicity and genotoxic effects of spinosad and deltamethrin in Drosophila melanogaster and Bactrocera oleae” (Pest Manag Sci, 2011)
Converted amounts (≈) assume the structure as drawn.

Assays:
[1] = system: Drosophila melanogaster; experiment: Insecticidal activity against Drosophila melanogaster adults assessed as death treated upto 24 hr at 24 +/- 1 degC, 60%RH; assay type: functional; details: for LC50: Drosophila melanogaster, 24 h
[2] = system: Bactrocera oleae; experiment: Insecticidal activity against Bactrocera oleae adults assessed as death treated upto 24 hr at 24 +/- 1 degC, 60%RH; assay type: functional; details: for LC50: Bactrocera oleae, 24 h
[3] = system: Bactrocera oleae; experiment: Insecticidal activity against Bactrocera oleae adults assessed as death treated upto 120 hr at 24 +/- 1 degC, 60%RH; assay type: functional; details: for LC50: Bactrocera oleae, 120 h
[4] = system: Bactrocera oleae; experiment: Insecticidal activity against Bactrocera oleae adults assessed as death treated upto 72 hr at 24 +/- 1 degC, 60%RH; assay type: functional; details: for LC50: Bactrocera oleae, 72 h
[5] = system: Drosophila melanogaster; experiment: Insecticidal activity against Drosophila melanogaster adults assessed as death treated upto 72 hr at 24 +/- 1 degC, 60%RH; assay type: functional; details: for LC50: Drosophila melanogaster, 72 h
[6] = system: Drosophila melanogaster; experiment: Insecticidal activity against Drosophila melanogaster adults assessed as death treated upto 192 hr at 24 +/- 1 degC, 60%RH; assay type: functional; details: for LC50: Drosophila melanogaster, 192 h
[7] = system: Bactrocera oleae; experiment: Insecticidal activity against Bactrocera oleae adults assessed as death treated upto 192 hr at 24 +/- 1 degC, 60%RH; assay type: functional; details: for LC50: Bactrocera oleae, 192 h
[8] = system: Drosophila melanogaster; experiment: Insecticidal activity against Drosophila melanogaster adults assessed as death treated upto 120 hr at 24 +/- 1 degC, 60%RH; assay type: functional; details: for LC50: Drosophila melanogaster, 120 h
[9] = system: Drosophila melanogaster; experiment: Insecticidal activity against Drosophila melanogaster larvae assessed as death at 24 +/- 1 degC, 60%RH; assay type: functional; details: for LC50: Drosophila melanogaster
[10] = system: Drosophila melanogaster; experiment: Genotoxicity in Drosophila melanogaster larvae at 0.10 to 0.30 mg/l; assay type: organism-based; details: in vivo
[11] = system: Drosophila melanogaster; experiment: Genotoxicity in Drosophila melanogaster larvae at 7.50 to 10 mg/l; assay type: organism-based; details: in vivo
[12] = system: Drosophila melanogaster; experiment: Genotoxicity in Drosophila melanogaster larvae at 10^-3 M; assay type: organism-based; details: in vivo, 1000 µM

Compound	LC90 [1] [µg/mL]	LC50 [1] [µg/mL]	LC90 [2] [µg/mL]	LC50 [2] [µg/mL]	LC90 [3] [µg/mL]	LC50 [3] [µg/mL]	LC90 [4] [µg/mL]	LC50 [4] [µg/mL]	LC90 [5] [µg/mL]	LC50 [5] [µg/mL]	LC90 [6] [µg/mL]	LC50 [6] [µg/mL]	LC90 [7] [µg/mL]	LC50 [7] [µg/mL]	LC90 [8] [µg/mL]	LC50 [8] [µg/mL]	LC90 [9] [µg/mL]	LC50 [9] [µg/mL]	other results
CC[C@H]1CCC[C@H](O[C@H]2CC[C@H](N(C)C)[C@@H](C)O2)[C@@H](C)C(=O)C2=C[C@@H]3[C@@H](C=C(C)[C@@H]4C[C@@H](O[C@@H]5O[C@@H](C)[C@H](OC)[C@@H](OC)[C@H]5OC)C[C@@H]34)[C@@H]2CC(=O)O1.CC[C@H]1CCC[C@H](O[C@H]2CC[C@H](N(C)C)[C@@H](C)O2)[C@@H](C)C(=O)C2=C[C@@H]3[C@@H](C=C[C@@H]4C[C@@H](O[C@@H]5O[C@@H](C)[C@H](OC)[C@@H](OC)[C@H]5OC)C[C@@H]34)[C@@H]2CC(=O)O1	5.604	3.8	7.277	4.06	0.422	0.191	0.598	0.341	1.998	1.26	0.367	0.262	0.345	0.111	1.074	0.75	0.308	0.13	Activity [10]: Non-toxic
CC1(C)[C@H](C(=O)O[C@H](C#N)c2cccc(Oc3ccccc3)c2)[C@@H]1C=C(Br)Br [DELTAMETHRIN]	31.682 (≈ 62.7 µM)	17.1 (≈ 33.8 µM)	6.033 (≈ 11.9 µM)	2.85 (≈ 5.64 µM)	0.161 (≈ 0.319 µM)	0.176 (≈ 0.348 µM)	1.002 (≈ 1.98 µM)	0.344 (≈ 0.681 µM)	14.591 (≈ 28.9 µM)	8.03 (≈ 15.9 µM)	10.352 (≈ 20.5 µM)	4.82 (≈ 9.53 µM)	0.398 (≈ 0.788 µM)	0.414 (≈ 0.819 µM)	13.599 (≈ 26.9 µM)	7.24 (≈ 14.3 µM)	17.41 (≈ 34.5 µM)	4.96 (≈ 9.81 µM)	Activity [11]: Non-toxic
CCOS(C)(=O)=O [METHANESULFONIC ACID ETHYL ESTER]																			Activity [12]: Toxic
